Measured values published in US6630499B1, “Control of arthropods in animals” (Aventis CropScience, S.A., priority 1998, dated 2003).

Legend:
Type in all cases: in vivo
[1] = tested on: cat fleas (Ctenocephalides felis); test: Control of cat fleas on treated dogs (Biological Examples 1-3); conditions: dogs, 10 mg/kg, 30 mg/mL in 1:1 dimethyl sulfoxide/corn oil, 1 day post-treatment, versus placebo group
Description: (§1) All dogs were infested with cat fleas (Ctenocephalides felis) and with ticks (Rhipicephalus sanguineus) 1 day prior to administration of the compound. Cats were only infested with fleas. The initial flea and tick counts were performed 1 day after the administration of the compounds. At 7, 14, 21 and 28 days after treatment the dogs were re-infested with ticks and 8, 15, 22 and 29 days after treatment the dogs and cats were re-infested with fleas. At 1, 9, 16, 23 and 30 days after treatment the control of fleas and ticks in treated dogs and cats was determined versus a group of infested dogs and cats which received a placebo consisting of a 1:1 volume/volume solution of dimethyl sulfoxide and corn oil. To determine the efficacies of the compounds, the arthropods were combed from the animals and counted.
(§2) The compounds listed below were formulated and tested as described in Biological Example 1, again at the dosage level of active ingredient of 10 mg/kg in dogs and 20 mg/kg in cats. Results at 1 DPT (day post-treatment) are tabulated below, where the compound numbers are the same as those listed in Tables 1, 2, 4, 5, 6, 7, 8, 9, 10, 11, 12 and 13 hereinabove.
(§3) Testing was carried out as described in Biological Example 1. […] The Huang et al compound was deemed to have insufficient activity to be tested in cats.

[2] = tested on: ticks (Rhipicephalus sanguineus); test: Control of ticks on treated dogs (Biological Examples 1-3); conditions: dogs, 10 mg/kg, 30 mg/mL in 1:1 dimethyl sulfoxide/corn oil, 1 day post-treatment, versus placebo group
Description: as §1, §2, §3

[3] = tested on: cat fleas (Ctenocephalides felis); test: Control of cat fleas on treated cats (Biological Examples 1-3); conditions: cats, 20 mg/kg, 30 mg/mL in 1:1 dimethyl sulfoxide/corn oil, 1 day post-treatment, versus placebo group
Description: as §1, §2, §3

Emesis in treated dogs = conditions: dogs, 10 mg/kg
Description: (§4) By the term “emesis” is meant vomiting. Generally an emetic substance elicits emesis in less than 24 hours after administration, usually less than 8 hours, more usually less than 2 hours. By the term “substantially non-emetic” is meant that, generally, when a compound or composition of the invention is administered to a population of animals, more than 70% (or at least ⅔) of the animals are free of emesis. Preferably, more than 80%, most preferably more than 90%, of said population is free of emesis.
(§5) In the animals treated with the compounds above, there was substantially no emesis after 2, 8 and 24 hours. Generally long-term control of fleas and ticks was provided in dogs. In the cats treated, there was commercially acceptable control of fleas for at least one day post treatment.
as §2

Emesis in treated cats = conditions: cats, 20 mg/kg
Description: as §4, §5, §2

| SMILES | % Control 1 DPT (Fleas/Ticks): Fleas [1] | % Control 1 DPT (Fleas/Ticks): Ticks [2] | % Control 1 DPT (Fleas) [3] [%] | % Emesis (Emesis in treated dogs) [%] | % Emesis (Emesis in treated cats) [%] |
| --- | --- | --- | --- | --- | --- |
| CC(C)OC(=O)N(C)c1c(SC(F)(F)F)c(C#N)nn1-c1c(Cl)cc(C(F)(F)F)cc1Cl [Compound 69-1] | 98% | 94% | 100 | 0 | 0 |
| CN(C)C=Nc1c(SC(F)(F)F)c(C#N)nn1-c1c(Cl)cc(C(F)(F)F)cc1Cl [Compound 219, 3-cyano-1-(2,6-dichloro-4-trifluoromethylphenyl)-5-N′-dimethylaminomethylideneamino-4-trifluoromethylthiopyrazole] | 97% | 80% | 100 | 33 | 25 |
| CC(=O)N(C)c1c(SC(F)(F)F)c(C#N)nn1-c1c(Cl)cc(C(F)(F)F)cc1Cl [Compound 1-1] | 91% | 82% | 99 | 0 | 0 |
| CC(C)N(C(=O)C1CCCO1)c1c(SC(F)(F)F)c(C#N)nn1-c1c(Cl)cc(C(F)(F)F)cc1Cl (stereo not shown) [Compound 3-7] | 100/100% | 100/100% | 100 | 0 | 0 |
| CCCOC(=O)N(C)c1c(SC(F)(F)F)c(C#N)nn1-c1c(Cl)cc(C(F)(F)F)cc1Cl [Compound 70-1] | 99% | 100% | 85 | 0 | 0 |
| CCCN(C(=O)OC)c1c(SC(F)(F)F)c(C#N)nn1-c1c(Cl)cc(C(F)(F)F)cc1Cl [Compound 75-1] | 89% | 57% | 71 | 0 | 25 |
| CCOCC(=O)N(C)c1c(SC(F)(F)F)c(C#N)nn1-c1c(Cl)cc(C(F)(F)F)cc1Cl [Compound 3-1] | 100% | 96% | 100 | 0 | 0 |
| COCC(=O)N(C)c1c(S(=O)(=O)C(F)(F)F)c(C#N)nn1-c1c(Cl)cc(C(F)(F)F)cc1Cl [Compound 2-5] | 100% | 95% | 100 | 33 | 0 |
| CN(C(=O)C1CCCO1)c1c([S+]([O-])C(F)(F)F)c(C#N)nn1-c1c(Cl)cc(C(F)(F)F)cc1Cl (mixture of isomers) [Compound 1-9] | 100/100% | 100/100% | 100 | 0 | 0 |
| CCOCC(=O)N(C)c1c([S+]([O-])C(F)(F)F)c(C#N)nn1-c1c(Cl)cc(C(F)(F)F)cc1Cl (racemic) [Compound 3-3] | 100% | 98% | 100 | 0 | 0 |
| CN(C(=O)C1CCCO1)c1c(S(=O)(=O)C(F)(F)F)c(C#N)nn1-c1c(Cl)cc(C(F)(F)F)cc1Cl (racemic) [Compound 1-11] | 100/100% | 100/100% | 98 | 0 | 0 |
| CN(C(=O)c1ccc(C(F)(F)F)cc1)c1c(SC(F)(F)F)c(C#N)nn1-c1c(Cl)cc(C(F)(F)F)cc1Cl [Compound 127-1] | 100% | 97% | 84 | 0 | 0 |
| CCOC(=O)N(CC)c1c(SC(F)(F)F)c(C#N)nn1-c1c(Cl)cc(C(F)(F)F)cc1Cl [Compound 72-1] | 100% | 97% | 99 | 0 | 0 |
| CC(C)OC(=O)N(c1c(SC(F)(F)F)c(C#N)nn1-c1c(Cl)cc(C(F)(F)F)cc1Cl)C(C)C [Compound 81-1] | 76% | 66% | 100 | 0 | 0 |
